Marks after values point to notes of the source that are not given here.
Key:
[1] = system: enterococci or staphylococci strains, including MRSA and VRE strains; experiment: In vivo efficacy of Compound 70 in mouse models, overall statement; conditions: mice; administration from distant parenteral sites (i.e., iv, sc, or im)
Description: (§1) Using the same basic procedure as described above, the in vivo efficacy of Compound 70 was also evaluated at various doses in mice infected with S. aureaus (Smith), MRSA 1094, Enterococcus faecalis, or vancomycin-resistant Enterococcus faecalis strain VRE 700802. […] Negative controls were mice infected that received no treatment. Mucin was employed as an adjuvant to facilitate bacterial infection in mice, where indicated.

[2] = system: Staphylococcus aureus (Smith); experiment: In vivo efficacy of Compound 70 in mouse models; conditions: mice, 10^8 CFU/mouse, regimen 1 (t=0)
Description: (§2) Swiss Webster mice, ca. 20 g each, were infected with Staphylococcus aureus (Smith strain) by the intraperitoneal route. Test compounds (2, 4, 5, 6, 7, 8, 10, 12) were dissolved in 10% dimethylsulfoxide in peanut oil to a concentration of 2 mg/ml. Vancomycin was used as positive control drug (i.e., protection from lethal infection). Fifteen minutes after infection, test compounds, vancomycin, or vehicle alone were given intraperitoneally to groups of five mice each. Animals were monitored for three days, and the number of mice surviving was tabulated for each treatment.
as §1

[3] = system: Enterococcus faecalis (ATCC 29212); experiment: In vivo efficacy of Compound 70 in mouse models; conditions: mice, 3x10^7 CFU/mouse + 5% Mucin
Description: as §2, §1

**Q.** Which results are given for CCc1cc(Nc2cc(=O)n(CCCCN3CCN(c4c(F)cc5c(=O)c(C(=O)O)cn(C6CC6)c5c4F)CC3C)c(=O)[nH]2)ccc1C (stereo not shown) [Compound 70, 3-{4-[1-(1-cyclopropyl-3-carboxy-4-oxo-6,8-difluoro-7-quinolyl)-3-methyl-4-piperazinyl]butyl}-6-(3-ethyl-4-methylanilino)uracil]?
**A.** activity against intra-peritoneal challenge [1]: dose-related activity; % Survival at 72 hours ([2]; dose 3.125 mg/kg): 0% (0/5); % Survival at 72 hours ([2]; dose 12.5 mg/kg): 40% (6/15); % Survival at 72 hours ([2]; dose 25 mg/kg): 100% (20/20)**; % Survival at 72 hours ([2]; dose 50 mg/kg): 100% (10/10)**; % Survival at 72 hours ([3]; dose 25 mg/kg, regimen 1 (t=0)): 40% (2/5); % Survival at 72 hours ([3]; dose 25 mg/kg, regimen 2 (t=0,2)): 40% (2/5); % Survival at 72 hours ([3]; dose 50 mg/kg, regimen 1 (t=0)): 60% (3/5); % Survival at 72 hours ([3]; dose 50 mg/kg, regimen 2 (t=0,2)): 80% (8/10)**; % Survival at 72 hours ([3]; dose 75 mg/kg, regimen 1 (t=0)): 80% (4/5)

From patent EP1401829B1, “NOVEL HETEROCYCLIC ANTIBACTERIAL COMPOUNDS” (Microbiotix, Inc., priority 2001, dated 2002)
